# Reference: PMC6359039, “Pharmacokinetics, Tissue Distribution, Plasma Protein Binding Studies of 10-Dehydroxyl-12-Demethoxy-Conophylline, a Novel Anti-Tumor Candidate, in Rats” (Molecules, 2019)
# Read-outs that look alike come from different tables or passages of the source.
# Legend:
# HL-60 = system: HL-60; set-up: method as in PMID 29772302; conditions: cited from earlier work
# MCF-7 = system: MCF-7; set-up: method as in PMID 29772302; conditions: cited from earlier work
# SW480 = system: SW480; set-up: method as in PMID 29772302; conditions: cited from earlier work
# [1] = Plasma pharmacokinetics in rats after i.v. and i.g. dosing (UPLC-FLR); assay type: in vivo, Sprague Dawley rats; set-up: CL: unit not given here; conditions: rat; for MRT: Sprague-Dawley; for pharmacokinetic model fit: plasma concentration–time data, DAS 2.0
# Description: Sprague Dawley rats (half male and female) with a body mass 180–220 g were provided by the Laboratory Animal Center of Medical University of Anhui (Hefei, China), Certificate number: SCXK(wan) 2015-002. Animals were housed under controlled conditions (temperature 22 ± 2 °C, humidity 50% ± 5%, 12 h dark/light cycle) with standardized diet and acclimatized for 7 days, prior to the experiments. All protocols and care of the rats were performed in strict compliance with the Guidelines for the Use of Laboratory Animals (National Research Council) and authorized by the Animal Care and Use Committee of Anhui University of Chinese Medicine.
# Chromatographic separation was performed using a UPLC system (Waters ACQUITY-CLASS. US) with an analytical column Kinetex (C18, 1.7 μm, 2.1 mm × 100 mm; Phenomenex; California; CA, USA) at 25 °C. Water and methanol (75:25) were used as the isocratic elution, running at a flow rate of 0.2 mL/min. The detector was used with fluorescence (FLR) detection with a fluorescence excitation wavelength of 330 nm and a fluorescence emission wavelength of 439 nm.
# The rat intravenous doses were determined as 4, 8, and 12 mg/kg, and the intragastric administration dose was 20 mg/kg. These were selected to investigate whether the pharmacokinetics of the drug was linear over the range of doses used. In all, 18 (SD) rats (half male and female) were randomly divided into three groups, namely, high-, medium- and low-dose groups. The rats fasted 12 h be before the administration of 10-dehydroxyl-12-demethoxy-conophylline but with free access to water. 10-dehydroxyl-12-demethoxy-conophylline was dissolved in normal saline and added with 5% ethanol. Amounts of 4, 8, and 12 mg/kg (0.5 mL/100 g) were injected into the tail vein of the rat, and 0.3 mL of blood was taken from the eyelid before administration (0 min) and 2, 5, 15, 30, 60, 90, 120, 180, 240, and 300 min after intravenous administration. Another 6 rats (half male and female) were administered an intragastrical (i.g.) dose of 20 mg/kg. Blood samples (0.3 mL) were collected by retro-orbital bleeding into heparinized 1.5mL tubes before administration (0 min) and 15, 30, 60, 90, 120, 240, 480, and 600 min after intragastric administration. Immediately after collection, the blood samples were centrifuged at 3500 rpm for 10 min to obtain plasma, and originating supernatants were also stored at −70 °C until analysis.
# Plasma samples (90 μL) were spiked with 10 μL internal standard (100 ng/mL) and extracted with 300 μL of methanol by vortexing for 10 min. The plasma and aqueous phases were separated by centrifugation at 14,000 rpm for 10 min. The supernatants were transferred to another tube and evaporated to dryness at 50 °C. The residue was dissolved in 100 μL methanol and vortexed. A 2 μL aliquot of the solution was injected into the UPLC system for analysis.
# The pharmacokinetic parameters were calculated using the pharmacokinetic software DAS 2.0 (Chinese Pharmacological Association, Beijing, China) by non-compartmental and compartmental analysis method. The elimination half-life (t1/2) was determined by linear regression of the terminal portion (last the points) of the plasma concentration–time curve. The area under the plasma concentration–time curve from zero to the last measurable plasma concentration point (AUC0-t) was calculated using the linear trapezoidal method. Extrapolation from time zero to infinity (AUC0-∞) was calculated as follows:AUC0-∞ = AUC0-t + Ct/ke,(2) where Ct is the last measurable plasma concentration and ke is the terminal elimination rate constant. […]
# SMMC-7721 = system: SMMC-7721; set-up: method as in PMID 29772302; conditions: cited from earlier work
# [2] = Plasma protein binding by equilibrium dialysis, human plasma; assay type: in vitro ADME; conditions: read-out: protein binding degree (converted)
# Description: Protein binding was determined in vitro by equilibrium dialysis of plasma of rats or human serum albumin. Blank dialysate, internal dialysate, and external dialysate were prepared separately. The internal dialysate was prepared by taking 0.4 mL of blank plasma and adding 100 μL of the 10-dehydroxyl-12-demethoxy-conophylline series standard solution to prepare the equivalent of 10-dehydroxyl-12-demethoxy-conophylline plasma concentrations of 0.078, 0.156, 0.312, 0.625, 1.250, 2.500, 5.000, and 20.000 μg/mL simulating biological samples. The external dialysate was prepared by taking 0.4 mL of blank dialysate and adding 100 μL of the 10-dehydroxyl-12-demethoxy-conophylline series standard solution to prepare the equivalent of 10-dehydroxyl-12-demethoxyconophylline plasma concentrations of […] simulating dialysate samples. The protein binding rate of 10-dehydroxyl-12-demethoxy-conophylline in plasma was measured using the equilibrium dialysis method in this experiment. The concentration of unbound compound (B) and bound compound to protein (A) were calculated as follows:F = (A − B)/A,(1) where F is the bounded fraction, A is the compound concentration in the plasma compartment, and B is the concentration of the compound in the phosphate buffer compartment.
# [3] = both sexes, Sprague Dawley, plasma, iv, 4 mg/kg i.v., mean ± SD, n = 6
# [4] = both sexes, Sprague Dawley, plasma, iv, 8 mg/kg i.v., mean ± SD, n = 6
# [5] = both sexes, Sprague Dawley, plasma, iv, 12 mg/kg i.v., mean ± SD, n = 6
# [6] = both sexes, Sprague Dawley, plasma, po, 20 mg/kg i.g., mean ± SD, n = 6
# [7] = 12 mg/kg i.v., mean ± SD, n = 6
# [8] = 20 mg/kg i.g., mean ± SD, n = 6
structure (smiles),measurement,setting,value
"CC[C@@]12CC(C(=O)OC)=C3Nc4cc5c(cc4[C@@]34CCN(C[C@H]3O[C@H]31)[C@@H]24)[C@@H]1C(O5)[C@@H](O)[C@@]2(CC)CC(C(=O)OC)=C3Nc4cc(OC)ccc4[C@@]34CCN1[C@@H]24 (stereo partly drawn) [10-dehydroxyl-12-demethoxy-conophylline, 10-Dehydroxyl-12-demethoxy-conophylline]",inhibitory activity on HL-60 tumor cell line,HL-60,significant inhibitory activity
same,inhibitory activity on MCF-7 tumor cell line,MCF-7,significant inhibitory activity
same,inhibitory activity on SW480 tumor cell line,SW480,significant inhibitory activity
same,AUC(0-inf),"[1]; both sexes, Sprague Dawley, plasma, iv, 4 mg/kg i.v.",1140 ng·h/mL
same,AUC(0-t),[1]; [3],988 ng·h/mL
same,clearance,[1]; [3],41 ± 70 mL/min/kg
same,AUC(0-inf),[1]; [4],2190 ng·h/mL
same,AUC(0-t),[1]; [4],2150 ng·h/mL
same,clearance,[1]; [4],39 ± 120 mL/min/kg
same,AUC(0-inf),"[1]; both sexes, Sprague Dawley, plasma, iv, 12 mg/kg i.v.",5090 ng·h/mL
same,AUC(0-t),[1]; [5],3910 ng·h/mL
same,clearance,[1]; [5],41 ± 50 mL/min/kg
same,bioavailability,"[1]; both sexes, Sprague Dawley, plasma, oral, 20 mg/kg i.g. versus i.v., read-out: absolute oral bioavailability",15.8%
same,AUC(0-inf),[1]; [6],1240 ng·h/mL
same,AUC(0-t),[1]; [6],867 ng·h/mL
same,Tmax,"[1]; both sexes, Sprague Dawley, plasma, iv, 4 mg/kg, 4 mg/kg i.v., mean ± SD, n = 6",2 min
same,half-life,"[1]; both sexes, Sprague Dawley, plasma, iv, 4 mg/kg, 4 mg/kg i.v., mean ± SD, n = 6, read-out: t1/2β",68.5 ± 3.29 min
same,Tmax,"[1]; both sexes, Sprague Dawley, plasma, iv, 8 mg/kg, 8 mg/kg i.v., mean ± SD, n = 6",2 min
same,half-life,"[1]; both sexes, Sprague Dawley, plasma, iv, 8 mg/kg, 8 mg/kg i.v., mean ± SD, n = 6, read-out: t1/2β",66.5 ± 4.55 min
same,Tmax,"[1]; both sexes, Sprague Dawley, plasma, iv, 12 mg/kg, 12 mg/kg i.v., mean ± SD, n = 6",2 min
same,half-life,"[1]; both sexes, Sprague Dawley, plasma, iv, 12 mg/kg, 12 mg/kg i.v., mean ± SD, n = 6, read-out: t1/2β",69.3 ± 4.32 min
same,half-life,"[1]; both sexes, Sprague Dawley, plasma, iv, 12 mg/kg, i.v. dosing at 4, 8 and 12 mg/kg, read-out: half-life t1/2α of intravenous administration",~7 min
same,half-life,"[1]; both sexes, Sprague Dawley, plasma, iv, 12 mg/kg, i.v. dosing at 4, 8 and 12 mg/kg, read-out: t1/2β of intravenous administration",~69 min
same,Tmax,"[1]; both sexes, Sprague Dawley, plasma, po, 20 mg/kg, 20 mg/kg i.g., mean ± SD, n = 6",~90 min
same,half-life,"[1]; both sexes, Sprague Dawley, plasma, po, 20 mg/kg, 20 mg/kg i.g., mean ± SD, n = 6, read-out: t1/2β",69.9 ± 2.68 min
same,MRT,"[1]; both sexes, plasma, iv, 4 mg/kg i.v., mean ± SD, n = 6",1.52 h
same,MRT,"[1]; both sexes, plasma, iv, 8 mg/kg i.v., mean ± SD, n = 6",1.42 h
same,MRT,"[1]; both sexes, plasma, iv, 12 mg/kg i.v., mean ± SD, n = 6",1.36 h
same,MRT,"[1]; both sexes, plasma, po, 20 mg/kg i.g., mean ± SD, n = 6",4.28 h
same,AUC0–∞,"[1]; 4 mg/kg i.v., mean ± SD, n = 6",68.478 ± 8.167 µg·min/mL
same,V,"[1]; 4 mg/kg i.v., mean ± SD, n = 6",2.096 ± 0.0465 L/kg
same,t1/2α,"[1]; 4 mg/kg i.v., mean ± SD, n = 6",6.983 ± 2.299 min
same,V,"[1]; 8 mg/kg i.v., mean ± SD, n = 6",1.906 ± 0.012 L/kg
same,t1/2α,"[1]; 8 mg/kg i.v., mean ± SD, n = 6",7.108 ± 1.908 min
same,AUC0–∞,[1]; [7],305.616 ± 17.432 µg·min/mL
same,V,[1]; [7],2.014 ± 0.019 L/kg
same,t1/2α,[1]; [7],7.046 ± 2.050 min
same,CL,[1]; [8],0.046 ± 0.013
same,V,[1]; [8],4.881 ± 2.390 L/kg
same,t1/2α,[1]; [8],52.415 ± 1.920 min
same,t1/2β of intravenous administration,"[1]; i.v. dosing at 4, 8 and 12 mg/kg",about 68 min
same,pharmacokinetic model fit,[1],fit to a two-room model
same,pharmacokinetic model fit,[1]; listed as 10-dehydroxyl-12-demethoxyconophylline,consistent with a two-compartment pharmacokinetic model
same,linear correlation between AUC0→t and dose (r),"[1]; single i.v. dose 4, 8 and 12 mg/kg",0.9821
same,inhibitory activity on SMMC-7721 tumor cell line,SMMC-7721,significant inhibitory activity
same,fraction unbound at 1 µg/mL,[2]; 1.00 µg/mL,0.131
same,fraction unbound at 2.5 µg/mL,[2]; 2.50 µg/mL,0.159
same,fraction unbound at 5 µg/mL,[2]; 5.00 µg/mL,0.153
